Reference: PubChem BioAssay (NCI)
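48-hour exposure; five concentrations; linearly interpolated endpoints. The concentration for 50% growth inhibition is given as GI50. At the TGI there is no net growth.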

Key:
Assay in all cases: NCI-60 cell line screen, 48 h
[1] = system: OVCAR-8 ovarian
[2] = system: NCI-H460 lung
[3] = system: UO-31 renal
[4] = system: OVCAR-5 ovarian
[5] = system: K-562 leukemia
[6] = system: A498 renal
[7] = system: MCF7 breast
[8] = system: HCC-2998 colon
[9] = system: IGROV1 ovarian
[10] = system: COLO 205 colon
[11] = system: HT29 colon
[12] = system: PC-3 prostate
[13] = system: RPMI-8226 leukemia
[14] = system: MDA-MB-231 breast
[15] = system: 786-0 renal
[16] = system: EKVX NSCLC
[17] = system: HOP-62 NSCLC
[18] = system: TK-10 renal
[19] = system: NCI-H226 lung
[20] = system: SF-539 CNS
[21] = system: SK-MEL-28 melanoma
[22] = system: SK-OV-3 ovarian
[23] = system: CCRF-CEM leukemia
[24] = system: SK-MEL-2 melanoma
[25] = system: HCT-15 colon
[26] = system: KM12 colon
[27] = system: CAKI-1 renal
[28] = system: T-47D breast
[29] = system: OVCAR-3 ovarian
[30] = system: MDA-MB-435
[31] = system: HCT-116 colon
[32] = system: MDA-MB-468 breast
[33] = system: SW-620 colon
[34] = system: SF-295 CNS
[35] = system: LOX IMVI melanoma
[36] = system: UACC-62 melanoma
[37] = system: MOLT-4 leukemia
[38] = system: MALME-3M melanoma
[39] = system: OVCAR-4 ovarian
[40] = system: SNB-19 CNS
[41] = system: DU-145 prostate
[42] = system: RXF 393 renal
[43] = system: SN12C renal
[44] = system: NCI-H23 lung
[45] = system: ACHN renal
[46] = system: SR leukemia
[47] = system: SK-MEL-5 melanoma
[48] = system: U251 CNS
[49] = system: SNB-75 CNS
[50] = system: BT-549 breast
[51] = system: M14 melanoma
[52] = system: HL-60(TB) leukemia
[53] = system: A549 NSCLC
[54] = system: HS 578T breast
[55] = system: SF-268 CNS

CC1=C(C(=O)OCc2ccccc2)C(c2cccc3ccccc23)n2c(nc3ccccc32)N1 (stereo not given) showed a GI50 [1] of 4.94 µM, a TGI [1] greater than 100 µM and a GI50 [2] of 3.61 µM. It also gave a TGI [2] greater than 100 µM, a GI50 [3] of 4.64 µM and a TGI [3] greater than 100 µM. For the same compound, the GI50 [4] was greater than 100 µM, the TGI [4] was greater than 100 µM and the GI50 [5] was 1660 nM. The TGI [5] was greater than 100 µM, the GI50 [6] was greater than 100 µM and the TGI [6] was greater than 100 µM. The GI50 [7] was 2710 nM, the TGI [7] was greater than 100 µM and the GI50 [8] was 7.58 µM. It also gave a TGI [8] greater than 100 µM, a GI50 [9] of 5.49 µM and a TGI [9] greater than 100 µM. It also gave a GI50 [10] of 3.22 µM, a TGI [10] greater than 100 µM and a GI50 [11] of 2530 nM. The TGI [11] was 8.29 µM, the GI50 [12] was 3.33 µM and the TGI [12] was greater than 100 µM. It also gave a GI50 [13] of 3.46 µM, a TGI [13] greater than 100 µM and a GI50 [14] greater than 100 µM. The TGI [14] was greater than 100 µM, the GI50 [15] was 4.68 µM and the TGI [15] was greater than 100 µM. The GI50 [16] was 4.8 µM, the TGI [16] was greater than 100 µM and the GI50 [17] was 4.15 µM. For the same compound, the TGI [17] was greater than 100 µM, the GI50 [18] was greater than 100 µM and the TGI [18] was greater than 100 µM. It also gave a GI50 [19] of 3.26 µM, a TGI [19] greater than 100 µM and a GI50 [20] of 3.22 µM. The TGI [20] was greater than 100 µM, the GI50 [21] was greater than 100 µM and the TGI [21] was greater than 100 µM. The GI50 [22] was 3.97 µM, the TGI [22] was greater than 100 µM and the GI50 [23] was 2690 nM. It also gave a TGI [23] greater than 100 µM, a GI50 [24] of 2500 nM and a TGI [24] of 7.66 µM. For the same compound, the GI50 [25] was 3.61 µM, the TGI [25] was greater than 100 µM and the GI50 [26] was 3.21 µM. For the same compound, the TGI [26] was greater than 100 µM, the GI50 [27] was 2400 nM and the TGI [27] was greater than 100 µM. It also gave a GI50 [28] of 4.22 µM, a TGI [28] greater than 100 µM and a GI50 [29] of 2650 nM. It also gave a TGI [29] of 7.58 µM, a GI50 [30] of 1860 nM and a TGI [30] of 4.68 µM. It also gave a GI50 [31] of 3.19 µM, a TGI [31] greater than 100 µM and a GI50 [32] of 1930 nM. The TGI [32] was 7.26 µM, the GI50 [33] was 3.62 µM and the TGI [33] was greater than 100 µM. It also gave a GI50 [34] of 3.04 µM, a TGI [34] greater than 100 µM and a GI50 [35] of 5.7 µM. For the same compound, the TGI [35] was greater than 100 µM, the GI50 [36] was 3.99 µM and the TGI [36] was greater than 100 µM. For the same compound, the GI50 [37] was 2710 nM, the TGI [37] was greater than 100 µM and the GI50 [38] was 3.84 µM. For the same compound, the TGI [38] was greater than 100 µM, the GI50 [39] was 6.36 µM and the TGI [39] was greater than 100 µM. The GI50 [40] was 5.8 µM, the TGI [40] was greater than 100 µM and the GI50 [41] was 4.21 µM. It also gave a TGI [41] greater than 100 µM, a GI50 [42] of 1510 nM and a TGI [42] of 6.9 µM. It also gave a GI50 [43] of 5.08 µM, a TGI [43] greater than 100 µM and a GI50 [44] of 32.6 µM. For the same compound, the TGI [44] was greater than 100 µM, the GI50 [45] was 4.66 µM and the TGI [45] was greater than 100 µM. For the same compound, the GI50 [46] was 2400 nM, the TGI [46] was greater than 100 µM and the GI50 [47] was 3.37 µM. It also gave a TGI [47] of 21.7 µM, a GI50 [48] of 3.49 µM and a TGI [48] greater than 100 µM. The GI50 [49] was 1390 nM, the TGI [49] was 4.91 µM and the GI50 [50] was 4.67 µM. For the same compound, the TGI [50] was greater than 100 µM, the GI50 [51] was 3.78 µM and the TGI [51] was greater than 100 µM. The GI50 [52] was 2140 nM, the TGI [52] was greater than 100 µM and the GI50 [53] was 5.21 µM. It also gave a TGI [53] greater than 100 µM, a GI50 [54] of 2690 nM and a TGI [54] of 8.82 µM. The GI50 [55] was 5.44 µM and the TGI [55] was greater than 100 µM.
